Experimental data as given in the supplement of paper PMC5908809.

Columns and labels:
[1] = test system: normal NK cells expanded with K562-aAPC; experiment: percent inhibition of viability; higher = more inhibition; conditions: 72 h, IL-2 2.5 ng/mL
Protocol: (§1)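 Drug sensitivity and resistance testing on K562-aAPC-expanded normal NK cells: 5 concentrations (10-fold steps over a 10,000-fold range), 72 h at 37 °C, viability by CellTiter-Glo normalised to DMSO and benzethonium chloride controls; DSS from the fitted curve.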

DERL-7 (IL-2 2.5 ng/mL) [2] = experiment: as above; conditions: 72 h
IMC-1 (IL-2 20 ng/mL) [3] = experiment: as above; conditions: 72 h
KAI3 (IL-2 2.5 ng/mL) [4] = experiment: as above; conditions: 72 h
KHYG-1 (IL-2 2.5 ng/mL) [5] = experiment: as above; conditions: 72 h
NK-92 (IL-2 2.5 ng/mL) [6] = experiment: as above; conditions: 72 h
NK-YS (IL-2 2.5 ng/mL) [7] = experiment: as above; conditions: 72 h
NKL (IL-2 2.5 ng/mL) [8] = experiment: as above; conditions: 72 h
SNK-6 (IL-2 2.5 ng/mL) [9] = experiment: as above; conditions: 72 h
YT (IL-2 2.5 ng/mL) [10] = experiment: as above; conditions: 72 h
[11] = test system: normal primary NK cells, pool 1 (3 donors) (IL-2 2.5 ng/mL); experiment: as above; conditions: 72 h
[12] = test system: normal primary NK cells, pool 1 (3 donors), resting (IL-2 0 ng/mL); experiment: as above; conditions: 72 h
[13] = test system: normal primary NK cells, pool 2 (3 donors) (IL-2 2.5 ng/mL); experiment: as above; conditions: 72 h
[14] = test system: normal primary NK cells, pool 3 (3 donors) (IL-2 2.5 ng/mL); experiment: as above; conditions: 72 h
[15] = test system: normal NK cells expanded with K562-aAPC; experiment: drug sensitivity score (DSS) (DSS units); higher = more sensitive; extreme values may be limits of the assay; conditions: 72 h; IL-2 2.5 ng/mL
Protocol: as §1

DERL-7 (IL-2 2.5 ng/mL) [16] = experiment: as above; conditions: 72 h
IMC-1 (IL-2 20 ng/mL) [17] = experiment: as above; conditions: 72 h
KAI3 (IL-2 2.5 ng/mL) [18] = experiment: as above; conditions: 72 h
KHYG-1 (IL-2 2.5 ng/mL) [19] = experiment: as above; conditions: 72 h
NK-92 (IL-2 2.5 ng/mL) [20] = experiment: as above; conditions: 72 h
NK-YS (IL-2 2.5 ng/mL) [21] = experiment: as above; conditions: 72 h
NKL (IL-2 2.5 ng/mL) [22] = experiment: as above; conditions: 72 h
SNK-6 (IL-2 2.5 ng/mL) [23] = experiment: as above; conditions: 72 h
YT (IL-2 2.5 ng/mL) [24] = experiment: as above; conditions: 72 h
[25] = test system: normal primary NK cells, pool 1 (3 donors) (IL-2 2.5 ng/mL); experiment: as above; conditions: 72 h
[26] = test system: normal primary NK cells, pool 1 (3 donors), resting (IL-2 0 ng/mL); experiment: as above; conditions: 72 h
[27] = test system: normal primary NK cells, pool 2 (3 donors) (IL-2 2.5 ng/mL); experiment: as above; conditions: 72 h
[28] = test system: normal primary NK cells, pool 3 (3 donors) (IL-2 2.5 ng/mL); experiment: as above; conditions: 72 h

COc1cc(N2CCC(N3CCN(C)CC3)CC2)ccc1Nc1ncnc(Nc2ccccc2S(=O)(=O)C(C)C)n1 [ASP3026] (max concentration tested 10000 nM)
percent inhibition of viability [%]
Conditions	1 nM	10 nM	100 nM	1000 nM	10000 nM
DERL-7 (IL-2 2.5 ng/mL) [2]	0.73	-6.32	2.12	0.42	57.2
IMC-1 (IL-2 20 ng/mL) [3]	-8.57	-5.26	-7.48	-3.28	98.9
KAI3 (IL-2 2.5 ng/mL) [4]	5.1	3.91	7.67	16.4	42.7
KHYG-1 (IL-2 2.5 ng/mL) [5]	-6.71	0.13	-0.92	10.2	61.3
NK-92 (IL-2 2.5 ng/mL) [6]	-10.8	-22.5	-27.1	-14.8	22.2
NK-YS (IL-2 2.5 ng/mL) [7]	-5.41	-0.07	-1.63	6.41	44.9
NKL (IL-2 2.5 ng/mL) [8]	-3.77	-9.59	5.62	18.9	47.8
SNK-6 (IL-2 2.5 ng/mL) [9]	-14.8	-8.98	-26.5	-35.9	8.43
YT (IL-2 2.5 ng/mL) [10]	-2.02	-0.55	1.22	12.5	69.4
[1]	0.75	-1.15	0.69	7.2	96.3
[11]	-1.83	5.98	6.01	9.21	38.7
[12]	-11.5	-0.46	-1.76	10.4	39.3
[13]	-4.59	-7.52	3.32	-3.09	28.1
[14]	1.7	-6.92	8.07	2.81	13.3

Conditions	drug sensitivity score
DERL-7 (IL-2 2.5 ng/mL) [16]	3.14
IMC-1 (IL-2 20 ng/mL) [17]	5.24
KAI3 (IL-2 2.5 ng/mL) [18]	3.79
KHYG-1 (IL-2 2.5 ng/mL) [19]	5.05
NK-92 (IL-2 2.5 ng/mL) [20]	0.4
NK-YS (IL-2 2.5 ng/mL) [21]	3.39
NKL (IL-2 2.5 ng/mL) [22]	4.54
SNK-6 (IL-2 2.5 ng/mL) [23]	0
YT (IL-2 2.5 ng/mL) [24]	5.89
[15]	6.45
[25]	3.22
[26]	3.53
[27]	0.97
[28]	0.03

CC(C)c1cc(-c2n[nH]c(=O)n2-c2ccc3c(ccn3C)c2)c(O)cc1O [Ganetespib] (max concentration tested 1000 nM)
percent inhibition of viability [%]
Conditions	0.1 nM	1 nM	10 nM	100 nM	1000 nM
DERL-7 (IL-2 2.5 ng/mL) [2]	-4.38	6.84	68.9	101	101
IMC-1 (IL-2 20 ng/mL) [3]	-2.6	-2.72	-0.68	99.7	101
KAI3 (IL-2 2.5 ng/mL) [4]	-0.77	-8.2	40.1	101	107
KHYG-1 (IL-2 2.5 ng/mL) [5]	1.44	4.41	5.54	99.7	109
NK-92 (IL-2 2.5 ng/mL) [6]	-6.96	-10.1	22.3	97.8	105
NK-YS (IL-2 2.5 ng/mL) [7]	-2.27	-6.04	33.9	101	107
NKL (IL-2 2.5 ng/mL) [8]	-3.59	1.19	45.1	90	92.9
SNK-6 (IL-2 2.5 ng/mL) [9]	-23.6	-15.5	5.21	86.1	88.1
YT (IL-2 2.5 ng/mL) [10]	-3.81	-4.31	1.84	93.2	99.1
[1]	-7.81	-3.48	56	98.1	99.3
[11]	1.74	4.42	62.4	86.4	86.4
[12]	2.3	-0.42	39.1	41.8	52.9
[13]	-4.93	1.18	65.2	77.6	79.6
[14]	-14.5	-11	45.4	78.5	79.9

Conditions	drug sensitivity score
DERL-7 (IL-2 2.5 ng/mL) [16]	26.6
IMC-1 (IL-2 20 ng/mL) [17]	17.9
KAI3 (IL-2 2.5 ng/mL) [18]	23.3
KHYG-1 (IL-2 2.5 ng/mL) [19]	18.7
NK-92 (IL-2 2.5 ng/mL) [20]	21.4
NK-YS (IL-2 2.5 ng/mL) [21]	22.8
NKL (IL-2 2.5 ng/mL) [22]	22
SNK-6 (IL-2 2.5 ng/mL) [23]	16.5
YT (IL-2 2.5 ng/mL) [24]	17.1
[15]	24.6
[25]	23.5
[26]	14.4
[27]	22.3
[28]	20.1
